# Test results reported in US9676780B2, “Piperazine-substituted [1,2,4]triazolo[1,5-C]quinazolin-5-amine compounds with A2A antagonist properties” (MERCK SHARP & DOHME CORP., priority 2012, dated 2017).
# Target: T1, human A2a receptor (Homo sapiens, UniProt P29274)
# T1 construct: purchased Perkin-Elmer RBHA2AM400UA; host or cells: HEK293
# Assay: A2a receptor competition binding assay (Scintillation Proximity, tritiated radioligand)
# Settings: membranes from HEK293 cells expressing the human A2a receptor; 0.5 nM tritiated ligand; SPA beads; one hour at room temperature; read-out: A2a EC50
# Experimental: Binding affinities of compounds of the invention for the human A2a receptor were determined in a competition binding assay using Scintillation Proximity technology. […] The beads were then allowed to settle to the bottom of the wells for 1 hr, after which the membrane-associated radioactivity was determined by scintillation counting in a TopCount microplate reader. Ki values were determined using the Cheng-Prusoff equation.
# • HEK293 cells expressing the human, rat, dog or monkey adenosine 2a receptor (Purchased from Perkin-Elmer # RBHA2AM400UA). • The Tritiated compound was prepared in-house by MRL Radiochemistry according to published methods. • Wheatgerm agglutinin-coated yttrium silicate SPA beads (GE Healthcare #RPNQ0023). […] This is a 2.5× solution. The final concentration in the assay is 0.5 nM. Calculate the concentration by counting two 5 ul aliquots. Membrane Preparation • Use 0.25 ug of membrane/well. Dilute membranes to 9.7 ug/ml in assay buffer. Treat with 20 ug/ml adenosine deaminase (ADA) for 15 minutes at room temperature to degrade endogenous adenosine. Membrane-Bead Mixture • Use 100 ug/well wheatgerm agglutinin-coated yttrium silicate SPA beads. • Mix ADA-treated membranes and SPA beads together for 30 min prior to assay. […] Incubate for one hour at room temperature with agitation. • Include total binding (assay buffer+1% DMSO) and non-specific binding (CGS15943, 1 uM) wells. Counting • Allow the beads to settle for one hour. • Count in TopCount. Calculations • A curve fitting program (i.e., Prism, Activity Base, Chemcart) is used to determine the EC50.
# The Ki value is calculated using the Cheng-Prusoff equation. Ki=EC50/(1+(radioligand concentration/Kd))
# T1 sequence (P29274 whole entry): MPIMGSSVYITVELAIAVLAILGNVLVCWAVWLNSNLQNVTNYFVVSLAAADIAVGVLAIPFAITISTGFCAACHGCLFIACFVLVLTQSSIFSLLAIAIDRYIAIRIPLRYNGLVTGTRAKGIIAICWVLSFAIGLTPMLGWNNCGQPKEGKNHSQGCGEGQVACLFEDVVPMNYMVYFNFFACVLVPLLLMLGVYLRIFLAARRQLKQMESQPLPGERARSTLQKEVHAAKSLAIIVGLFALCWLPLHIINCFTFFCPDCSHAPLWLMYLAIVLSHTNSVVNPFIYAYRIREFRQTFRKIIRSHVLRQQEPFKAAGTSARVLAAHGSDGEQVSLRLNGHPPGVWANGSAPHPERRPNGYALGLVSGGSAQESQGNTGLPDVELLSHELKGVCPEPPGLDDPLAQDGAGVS
row,SMILES,EC50 [µM]
1,COc1cccc2c1nc(N)n1nc(CN3CCN(C)CC3c3ccccc3)nc21 (centres unmarked) [Ex-3],0.19
2,COc1cccc2c1nc(N)n1nc(CN3CC(C)N(c4ccccc4)CC3C)nc21 (centres unmarked) [Ex-8],0.0213
3,COc1cc(F)cc2c1nc(N)n1nc(CN3CCN(c4ccc(F)cc4)CC3C)nc21 (centres unmarked) [Ex-11],0.00768
4,CCn1cncc1CN1CCN(Cc2nc3c4cccc(OC)c4nc(N)n3n2)C(C)C1 (centres unmarked) [Ex-14],0.0528
5,COc1cccc2c1nc(N)n1nc(CN3CCN(Cc4c(C)nc5scnn45)CC3C)nc21 (centres unmarked) [Ex-15],0.0081
6,COc1cccc2c1nc(N)n1nc(CN3CCN(Cc4ncco4)CC3C)nc21 (centres unmarked) [Ex-16],0.0365
7,COc1cccc2c1nc(N)n1nc(CN3CCN(Cc4nccs4)CC3C)nc21 (centres unmarked) [Ex-17],0.0267
8,COc1cc(CN2CCN(Cc3nc4c5cccc(OC)c5nc(N)n4n3)C(C)C2)cc(OC)c1 (centres unmarked) [Ex-20],0.0517
9,COc1cccc2c1nc(N)n1nc(CN3CCN(Cc4ccc(F)cc4F)CC3C)nc21 (centres unmarked) [Ex-21],0.0203
10,COc1cccc2c1nc(N)n1nc(CN3CCN(Cc4cccc(Oc5ccccc5)c4)CC3C)nc21 (centres unmarked) [Ex-22],0.01
11,COc1cccc2c1nc(N)n1nc(CN3CCN(Cc4c(F)cccc4F)CC3C)nc21 (centres unmarked) [Ex-24],0.0144
12,COc1ccc(CN2CCN(Cc3nc4c5cccc(OC)c5nc(N)n4n3)C(C)C2)cc1F (centres unmarked) [Ex-25],0.0345
13,COc1cccc2c1nc(N)n1nc(CN3CCN(Cc4cccc(Cl)c4F)CC3C)nc21 (centres unmarked) [Ex-27],0.0068
14,COc1cccc2c1nc(N)n1nc(CN3CCN(Cc4ccc(F)c(F)c4F)CC3C)nc21 (centres unmarked) [Ex-29],0.0186
15,COc1cccc2c1nc(N)n1nc(CN3CCN(Cc4ccc(N(C)C)cc4)CC3C)nc21 (centres unmarked) [Ex-32],0.0783
16,COc1cccc2c1nc(N)n1nc(CN3CCN(c4ccc(Cl)cc4)C[C@@H]3C)nc21 [Ex-34],0.0185
17,COc1cccc2c1nc(N)n1nc(CN3CCN(c4ccc(Cl)cc4)C[C@H]3C)nc21 [Ex-35],0.0037
18,COc1cccc2c1nc(N)n1nc(CN3CCN(Cc4cc(C)ccc4C)CC3C)nc21 (centres unmarked) [Ex-36],0.0181
19,COc1cc(F)cc2c1nc(N)n1nc(CN3CCN(c4ccc(F)cc4)CC3C)nc21 (centres unmarked) [Ex-37],0.0489
20,COc1cccc2c1nc(N)n1nc(CN3CCN(c4ccc(C(F)(F)F)cn4)CC3C)nc21 (centres unmarked) [Ex-40],0.0226
21,COc1cc(F)cc2c1nc(N)n1nc(CN3CCN(c4ccc(C(F)(F)F)cn4)CC3C)nc21 (centres unmarked) [Ex-42],0.0283
22,COc1cccc2c1nc(N)n1nc(CN3CCN(c4ccc(F)cc4)C[C@H]3C3CC3)nc21 [Ex-43],0.00211
23,COc1cccc2c1nc(N)n1nc(CN3CCN(c4ccc(F)cc4)C[C@H]3C(C)C)nc21 [Ex-44],0.0036
24,CCC1CN(C(=O)c2ccc(F)cc2)CC(C)N1Cc1nc2c3cccc(OC)c3nc(N)n2n1 (centres unmarked) [Ex-46],0.0502
25,COc1cccc2c1nc(N)n1nc(CN3CCN(c4ccccc4C(F)(F)F)CC3C)nc21 (centres unmarked) [Ex-47],0.0592
26,COc1cccc2c1nc(N)n1nc(C(C)N3CCN(c4ccc(F)cc4)CC3C)nc21 (centres unmarked) [Ex-49],0.0049
27,"COc1cccc2c1nc(N)n1nc(C(C)N3CCN(c4ccc(F)cc4)C[C@H]3C)nc21 (stereo partly drawn) [Ex-50, 2-{1-[(2R)-4-(4-fluorophenyl)-2-methylpiperazin-1-yl]ethyl}-7-methoxy[1,2,4]triazolo[1,5-c]quinazolin-5-amine]",0.139

row,SMILES,EC50 [µM]
1,COc1cccc2c1nc(N)n1nc(CN3CCN(c4noc(C)n4)CC3C)nc21 (centres unmarked) [Ex-52],0.0485
2,COc1cccc2c1nc(N)n1nc(CN3CCN(c4noc(C5CC5)n4)CC3C)nc21 (centres unmarked) [Ex-53],0.0159
3,COc1cccc2c1nc(N)n1nc(CN3CCN(c4nnn[nH]4)CC3C)nc21 (centres unmarked) [Ex-54],0.106
4,COc1cccc2c1nc(N)n1nc(CN3CCN(c4cccc(C(F)(F)F)c4)C[C@H]3C)nc21 [Ex-55],0.0052
5,COc1cccc2c1nc(N)n1nc(CN3CCN(c4ccccc4Cl)CC3C)nc21 (centres unmarked) [Ex-58],0.0124
6,COc1cccc2c1nc(N)n1nc(CN3CCN(c4ccc(C#N)cc4)CC3C)nc21 (centres unmarked) [Ex-61],0.0114
7,COc1cccc2c1nc(N)n1nc(CN3CCN(c4ccc5ncccc5c4)CC3C)nc21 (centres unmarked) [Ex-63],0.00144
8,COc1cccc2c1nc(N)n1nc(CN3CCN(c4ccccc4C)CC3C)nc21 (centres unmarked) [Ex-64],0.0131
9,COc1cccc2c1nc(N)n1nc(CN3CCN(c4cccc(C)c4)CC3C)nc21 (centres unmarked) [Ex-65],0.007
10,COc1cccc2c1nc(N)n1nc(CN3CCN(c4ccc(C)cc4)CC3C)nc21 (centres unmarked) [Ex-66],0.003
11,COc1cccc2c1nc(N)n1nc(CN3CCN(c4cccc5ccccc45)CC3C)nc21 (centres unmarked) [Ex-71],0.0115
12,COc1cccc2c1nc(N)n1nc(CN3CCN(c4ccc5ccccc5c4)CC3C)nc21 (centres unmarked) [Ex-72],0.0067
13,COc1cccc2c1nc(N)n1nc(CN3CCN(c4nnc(C)s4)CC3C)nc21 (centres unmarked) [Ex-74],0.0318
14,COCc1nc(N2CCN(Cc3nc4c5cccc(OC)c5nc(N)n4n3)C(C)C2)no1 (centres unmarked) [Ex-79],0.0211
15,COc1cccc2c1nc(N)n1nc(CN3CCN(c4noc(C(C)C)n4)CC3C)nc21 (centres unmarked) [Ex-80],0.0194
16,COc1cccc2c1nc(N)n1nc(CN3CCN(c4ncc(C(=O)O)s4)CC3C)nc21 (centres unmarked) [Ex-81],0.0682
17,COc1cccc2c1nc(N)n1nc(CN3CCN(c4nnc(C)[nH]4)CC3C)nc21 (centres unmarked) [Ex-84],0.0572
18,CCc1nc(N2CCN(Cc3nc4c5cccc(OC)c5nc(N)n4n3)C(C)C2)no1 (centres unmarked) [Ex-87],0.0215
19,COc1cccc2c1nc(N)n1nc(CN3CCN(c4noc(C(C)(C)C)n4)CC3C)nc21 (centres unmarked) [Ex-88],0.0222
20,COc1cccc2c1nc(N)n1nc(CN3CCN(C(=O)c4nc(C5CC5)no4)CC3C)nc21 (centres unmarked) [Ex-90],0.0535
21,COc1cccc2c1nc(N)n1nc(CN3CCN(C(C)c4ccc(F)cc4F)CC3C)nc21 (centres unmarked) [Ex-92],0.0052
22,COc1cccc2c1nc(N)n1nc(CN3CCN(C(C)c4ccc(F)cc4F)CC3C)nc21 (centres unmarked) [Ex-93],0.0046
23,COCCOc1ccc(N2CCN(Cc3nc4c5cccc(OC)c5nc(N)n4n3)C(C)C2)cc1 (centres unmarked) [Ex-94],0.00185
24,COc1cc(F)ccc1N1CCN(Cc2nc3c4cccc(OC)c4nc(N)n3n2)C(C)C1 (centres unmarked) [Ex-96],0.00341
25,COc1cccc2c1nc(N)n1nc(CN3CCN(c4cc(C)ccn4)CC3C)nc21 (centres unmarked) [Ex-98],0.0397
26,COc1cccc2c1nc(N)n1nc(CN3CCN(c4cccc(C)n4)CC3C)nc21 (centres unmarked) [Ex-99],0.0463

# Continued, values first:
row,EC50 [µM],SMILES
1,0.088,CCn1ccnc1CN1CCN(Cc2nc3c4cccc(OC)c4nc(N)n3n2)C(C)C1 (centres unmarked) [Ex-12]
2,0.0871,COc1cccc2c1nc(N)n1nc(CN3CCN(Cc4nc5ccncc5n4C)CC3C)nc21 (centres unmarked) [Ex-13]
3,0.0269,COc1cccc2c1nc(N)n1nc(CN3CCN(Cc4cccc(C)n4)CC3C)nc21 (centres unmarked) [Ex-18]
4,0.0296,COc1cccc2c1nc(N)n1nc(CN3CCN(Cc4ncccc4F)CC3C)nc21 (centres unmarked) [Ex-19]
5,0.0177,COc1cccc2c1nc(N)n1nc(CN3CCN(Cc4ccc(F)c(F)c4)CC3C)nc21 (centres unmarked) [Ex-23]
6,0.0218,COc1cccc2c1nc(N)n1nc(CN3CCN(Cc4cc(F)cc(F)c4)CC3C)nc21 (centres unmarked) [Ex-26]
7,0.0156,COc1cccc2c1nc(N)n1nc(CN3CCN(Cc4ccc(F)c(C)c4)CC3C)nc21 (centres unmarked) [Ex-28]
8,0.0092,COc1cccc2c1nc(N)n1nc(CN3CCN(Cc4cc(F)c(F)cc4F)CC3C)nc21 (centres unmarked) [Ex-30]
9,0.0491,COc1cccc2c1nc(N)n1nc(CN3CCN(Cc4ccc(N5CCCC5)cc4)CC3C)nc21 (centres unmarked) [Ex-31]
10,0.0359,COc1cccc2c1nc(N)n1nc(CN3CCN(Cc4ccc(N5CCCC5=O)cc4)CC3C)nc21 (centres unmarked) [Ex-33]
11,0.0181,COc1cc(F)cc2c1nc(N)n1nc(CN3CCN(c4ccc(F)cn4)CC3C)nc21 (centres unmarked) [Ex-41]
12,0.0057,CC[C@@H]1CN(c2ccc(F)cc2)CCN1Cc1nc2c3cccc(OC)c3nc(N)n2n1 [Ex-45]
13,0.0182,COc1cccc2c1nc(N)n1nc(CN3CCN(c4ccc(C(F)(F)F)cc4)CC3C)nc21 (centres unmarked) [Ex-48]
14,0.0738,COc1cccc2c1nc(N)n1nc(CN3CCN(c4nccs4)CC3C)nc21 (centres unmarked) [Ex-51]
15,0.0309,COc1cccc2c1nc(N)n1nc(CN3CCN(c4ccccc4C#N)CC3C)nc21 (centres unmarked) [Ex-59]
16,0.0188,COc1cccc2c1nc(N)n1nc(CN3CCN(c4cccc(C#N)c4)CC3C)nc21 (centres unmarked) [Ex-60]
17,0.0474,COc1cccc2c1nc(N)n1nc(CN3CCN(c4nncs4)CC3C)nc21 (centres unmarked) [Ex-75]
18,0.628,COc1cccc2c1nc(N)n1nc(CN3CCN(c4noc(=O)[nH]4)CC3C)nc21 (centres unmarked) [Ex-82]
19,0.0476,COc1cccc2c1nc(N)n1nc(CN3CCN(c4noc(C(F)(F)F)n4)CC3C)nc21 (centres unmarked) [Ex-83]
20,0.0722,COc1cccc2c1nc(N)n1nc(CN3CCN(c4ncns4)CC3C)nc21 (centres unmarked) [Ex-89]
21,0.0423,COc1cccc2c1nc(N)n1nc(CN3CCN(c4nc(C(C)(C)C)no4)CC3C)nc21 (centres unmarked) [Ex-91]
22,0.0031,COc1cccc2c1nc(N)n1nc(CN3CCN(c4ccc(F)cc4F)CC3C)nc21 (centres unmarked) [Ex-95]
23,0.0182,COc1cccc2c1nc(N)n1nc(CN3CCN(c4ccnc(C(F)(F)F)c4)CC3C)nc21 (centres unmarked) [Ex-97]
24,0.0294,COc1cccc2c1nc(N)n1nc(CN3CCN(c4ccncc4C(F)(F)F)CC3C)nc21 (centres unmarked) [Ex-100]
